# Assay results reported in PubChem BioAssay (NCI).
#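 Five concentrations, 48 hours, 96-well plates. TGI marks complete inhibition of growth.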
# Test system: NCI-H522 lung
# Assay: NCI tumour cell line growth inhibition, 48 h
row,SMILES,TGI [µM]
1,C[C@@H]1OC(=O)C[C@H]2CC(=O)N(CCC3CN(C(=O)c4ccccc4)c4ccccc43)C[C@@H]21 (stereo partly drawn),> 100

# Test system: COLO 205 colon
# Assay: NCI tumour cell line growth inhibition, 48 h
row,SMILES,TGI [µM]
1,COc1ccc(-n2cnc3c(N)nc(N)nc32)cc1,> 100
2,COc1ccc2c(c1)/C(=C\c1c(-c3ccccc3)nc3n1CCS3)C(=O)N2,11.2
3,COc1ccc(N2C(=O)C3c4[nH]c5cccc(Cl)c5c4C4CCC(C(C)(C)C)CC4C3C2=O)cc1 (stereo not drawn),> 100
4,O=c1cc(N2CCOCC2)[nH]c(=O)n1-c1cccc(Cl)c1,> 100
5,C[C@@H]1OC(=O)C[C@H]2CC(=O)N(CCC3CN(C(=O)c4ccccc4)c4ccccc43)C[C@@H]21 (stereo partly drawn),> 100

# Test system: U251 CNS
# Assay: NCI tumour cell line growth inhibition, 48 h
row,SMILES,TGI [µM]
1,COc1ccc(-n2cnc3c(N)nc(N)nc32)cc1,> 100
2,COc1ccc2c(c1)/C(=C\c1c(-c3ccccc3)nc3n1CCS3)C(=O)N2,20.3
3,COc1ccc(N2C(=O)C3c4[nH]c5cccc(Cl)c5c4C4CCC(C(C)(C)C)CC4C3C2=O)cc1 (stereo not drawn),> 100
4,O=c1cc(N2CCOCC2)[nH]c(=O)n1-c1cccc(Cl)c1,> 100
5,C[C@@H]1OC(=O)C[C@H]2CC(=O)N(CCC3CN(C(=O)c4ccccc4)c4ccccc43)C[C@@H]21 (stereo partly drawn),> 100

# Test system: SF-539 CNS
# Assay: NCI tumour cell line growth inhibition, 48 h
row,SMILES,TGI [µM]
1,COc1ccc(-n2cnc3c(N)nc(N)nc32)cc1,> 100
2,COc1ccc2c(c1)/C(=C\c1c(-c3ccccc3)nc3n1CCS3)C(=O)N2,19.1
3,COc1ccc(N2C(=O)C3c4[nH]c5cccc(Cl)c5c4C4CCC(C(C)(C)C)CC4C3C2=O)cc1 (stereo not drawn),> 100
4,O=c1cc(N2CCOCC2)[nH]c(=O)n1-c1cccc(Cl)c1,> 100

# Test system: ACHN renal
# Assay: NCI tumour cell line growth inhibition, 48 h
row,SMILES,TGI [µM]
1,COc1ccc(-n2cnc3c(N)nc(N)nc32)cc1,> 100
2,COc1ccc2c(c1)/C(=C\c1c(-c3ccccc3)nc3n1CCS3)C(=O)N2,56.8
3,COc1ccc(N2C(=O)C3c4[nH]c5cccc(Cl)c5c4C4CCC(C(C)(C)C)CC4C3C2=O)cc1 (stereo not drawn),> 100
4,O=c1cc(N2CCOCC2)[nH]c(=O)n1-c1cccc(Cl)c1,> 100
5,C[C@@H]1OC(=O)C[C@H]2CC(=O)N(CCC3CN(C(=O)c4ccccc4)c4ccccc43)C[C@@H]21 (stereo partly drawn),> 100

# Test system: HL-60(TB) leukemia
# Assay: NCI tumour cell line growth inhibition, 48 h
row,SMILES,TGI [µM]
1,COc1ccc2c(c1)/C(=C\c1c(-c3ccccc3)nc3n1CCS3)C(=O)N2,11.4
2,O=c1cc(N2CCOCC2)[nH]c(=O)n1-c1cccc(Cl)c1,> 100

# Test system: RXF 393 renal
# Assay: NCI tumour cell line growth inhibition, 48 h
row,SMILES,TGI [µM]
1,COc1ccc(-n2cnc3c(N)nc(N)nc32)cc1,> 100
2,COc1ccc2c(c1)/C(=C\c1c(-c3ccccc3)nc3n1CCS3)C(=O)N2,34.3
3,O=c1cc(N2CCOCC2)[nH]c(=O)n1-c1cccc(Cl)c1,> 100
4,C[C@@H]1OC(=O)C[C@H]2CC(=O)N(CCC3CN(C(=O)c4ccccc4)c4ccccc43)C[C@@H]21 (stereo partly drawn),> 100

# Test system: HT29 colon
# Assay: NCI tumour cell line growth inhibition, 48 h
row,SMILES,TGI [µM]
1,COc1ccc(-n2cnc3c(N)nc(N)nc32)cc1,> 100
2,COc1ccc2c(c1)/C(=C\c1c(-c3ccccc3)nc3n1CCS3)C(=O)N2,16
3,COc1ccc(N2C(=O)C3c4[nH]c5cccc(Cl)c5c4C4CCC(C(C)(C)C)CC4C3C2=O)cc1 (stereo not drawn),> 100
4,O=c1cc(N2CCOCC2)[nH]c(=O)n1-c1cccc(Cl)c1,> 100
5,C[C@@H]1OC(=O)C[C@H]2CC(=O)N(CCC3CN(C(=O)c4ccccc4)c4ccccc43)C[C@@H]21 (stereo partly drawn),> 100

# Test system: UO-31 renal
# Assay: NCI tumour cell line growth inhibition, 48 h
row,SMILES,TGI [µM]
1,COc1ccc(-n2cnc3c(N)nc(N)nc32)cc1,> 100
2,COc1ccc2c(c1)/C(=C\c1c(-c3ccccc3)nc3n1CCS3)C(=O)N2,34.2
3,COc1ccc(N2C(=O)C3c4[nH]c5cccc(Cl)c5c4C4CCC(C(C)(C)C)CC4C3C2=O)cc1 (stereo not drawn),> 100
4,C[C@@H]1OC(=O)C[C@H]2CC(=O)N(CCC3CN(C(=O)c4ccccc4)c4ccccc43)C[C@@H]21 (stereo partly drawn),> 100

# Test system: SN12C renal
# Assay: NCI tumour cell line growth inhibition, 48 h
row,SMILES,TGI [µM]
1,COc1ccc(-n2cnc3c(N)nc(N)nc32)cc1,> 100
2,COc1ccc2c(c1)/C(=C\c1c(-c3ccccc3)nc3n1CCS3)C(=O)N2,27.6
3,COc1ccc(N2C(=O)C3c4[nH]c5cccc(Cl)c5c4C4CCC(C(C)(C)C)CC4C3C2=O)cc1 (stereo not drawn),> 100
4,O=c1cc(N2CCOCC2)[nH]c(=O)n1-c1cccc(Cl)c1,> 100

# Test system: RPMI-8226 leukemia
# Assay: NCI tumour cell line growth inhibition, 48 h
row,SMILES,TGI [µM]
1,COc1ccc(-n2cnc3c(N)nc(N)nc32)cc1,> 100
2,COc1ccc2c(c1)/C(=C\c1c(-c3ccccc3)nc3n1CCS3)C(=O)N2,32.2
3,COc1ccc(N2C(=O)C3c4[nH]c5cccc(Cl)c5c4C4CCC(C(C)(C)C)CC4C3C2=O)cc1 (stereo not drawn),> 100
4,O=c1cc(N2CCOCC2)[nH]c(=O)n1-c1cccc(Cl)c1,> 100
5,C[C@@H]1OC(=O)C[C@H]2CC(=O)N(CCC3CN(C(=O)c4ccccc4)c4ccccc43)C[C@@H]21 (stereo partly drawn),> 100

# Test system: OVCAR-8 ovarian
# Assay: NCI tumour cell line growth inhibition, 48 h
row,SMILES,TGI [µM]
1,COc1ccc(-n2cnc3c(N)nc(N)nc32)cc1,> 100
2,COc1ccc2c(c1)/C(=C\c1c(-c3ccccc3)nc3n1CCS3)C(=O)N2,47.5
3,COc1ccc(N2C(=O)C3c4[nH]c5cccc(Cl)c5c4C4CCC(C(C)(C)C)CC4C3C2=O)cc1 (stereo not drawn),> 100
4,O=c1cc(N2CCOCC2)[nH]c(=O)n1-c1cccc(Cl)c1,> 100
5,C[C@@H]1OC(=O)C[C@H]2CC(=O)N(CCC3CN(C(=O)c4ccccc4)c4ccccc43)C[C@@H]21 (stereo partly drawn),> 100

# Test system: BT-549 breast
# Assay: NCI tumour cell line growth inhibition, 48 h
row,SMILES,TGI [µM]
1,COc1ccc(-n2cnc3c(N)nc(N)nc32)cc1,> 100
2,COc1ccc2c(c1)/C(=C\c1c(-c3ccccc3)nc3n1CCS3)C(=O)N2,32.7
3,COc1ccc(N2C(=O)C3c4[nH]c5cccc(Cl)c5c4C4CCC(C(C)(C)C)CC4C3C2=O)cc1 (stereo not drawn),> 100
4,O=c1cc(N2CCOCC2)[nH]c(=O)n1-c1cccc(Cl)c1,> 100
5,C[C@@H]1OC(=O)C[C@H]2CC(=O)N(CCC3CN(C(=O)c4ccccc4)c4ccccc43)C[C@@H]21 (stereo partly drawn),> 100

# Test system: NCI-H460 lung
# Assay: NCI tumour cell line growth inhibition, 48 h
row,SMILES,TGI [µM]
1,COc1ccc2c(c1)/C(=C\c1c(-c3ccccc3)nc3n1CCS3)C(=O)N2,14.4
2,COc1ccc(N2C(=O)C3c4[nH]c5cccc(Cl)c5c4C4CCC(C(C)(C)C)CC4C3C2=O)cc1 (stereo not drawn),> 100
3,O=c1cc(N2CCOCC2)[nH]c(=O)n1-c1cccc(Cl)c1,> 100
4,C[C@@H]1OC(=O)C[C@H]2CC(=O)N(CCC3CN(C(=O)c4ccccc4)c4ccccc43)C[C@@H]21 (stereo partly drawn),> 100

# Test system: MALME-3M melanoma
# Assay: NCI tumour cell line growth inhibition, 48 h
row,SMILES,TGI [µM]
1,COc1ccc(-n2cnc3c(N)nc(N)nc32)cc1,> 100
2,COc1ccc2c(c1)/C(=C\c1c(-c3ccccc3)nc3n1CCS3)C(=O)N2,30.7
3,COc1ccc(N2C(=O)C3c4[nH]c5cccc(Cl)c5c4C4CCC(C(C)(C)C)CC4C3C2=O)cc1 (stereo not drawn),> 100
4,O=c1cc(N2CCOCC2)[nH]c(=O)n1-c1cccc(Cl)c1,> 100
5,C[C@@H]1OC(=O)C[C@H]2CC(=O)N(CCC3CN(C(=O)c4ccccc4)c4ccccc43)C[C@@H]21 (stereo partly drawn),> 100

# Test system: SW-620 colon
# Assay: NCI tumour cell line growth inhibition, 48 h
row,SMILES,TGI [µM]
1,COc1ccc(-n2cnc3c(N)nc(N)nc32)cc1,> 100
2,COc1ccc2c(c1)/C(=C\c1c(-c3ccccc3)nc3n1CCS3)C(=O)N2,16.3
3,COc1ccc(N2C(=O)C3c4[nH]c5cccc(Cl)c5c4C4CCC(C(C)(C)C)CC4C3C2=O)cc1 (stereo not drawn),> 100
4,O=c1cc(N2CCOCC2)[nH]c(=O)n1-c1cccc(Cl)c1,> 100
5,C[C@@H]1OC(=O)C[C@H]2CC(=O)N(CCC3CN(C(=O)c4ccccc4)c4ccccc43)C[C@@H]21 (stereo partly drawn),> 100
